# Measured values published in PubChem BioAssay (NCI).
#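 Cells were grown in 96-well plates and exposed to each compound for 48 hours at five concentrations; endpoints were interpolated linearly between bracketing concentrations, or set to the highest concentration if not reached. At the GI50, growth is halved. TGI denotes the concentration required for complete inhibition of growth.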 *1 amine or outer side, *2 acyl side, *3 side chain or, on linkers, in order; H or OH if unused. Where a SMILES comes first, the peptide text is derived from it. [ ]: non-standard residue; d: D form. X32 = C[C@H](N[*:1])C(=O)C(C)(C)C(=O)[*:2]; Hmpa(2S,3S) = CC[C@H](C)[C@H](O)C(=O)O; NMeY = CN[C@@H](Cc1ccc(O)cc1)C(=O)O; NMeL = CN[C@@H](CC(C)C)C(=O)O; NMeV = CN[C@H](C(=O)O)C(C)C; βAla = NCCC(=O)O
# Legend:
# Experiment in all cases: inhibition of tumour cell growth, NCI panel, 48 h
# 786-0 renal = test system: 786-0 renal
# HOP-92 NSCLC = test system: HOP-92 NSCLC
# NCI-H226 lung = test system: NCI-H226 lung
# U251 CNS = test system: U251 CNS
# OVCAR-5 ovarian = test system: OVCAR-5 ovarian
# IGROV1 ovarian = test system: IGROV1 ovarian
# K-562 leukemia = test system: K-562 leukemia
# M14 melanoma = test system: M14 melanoma
# KM12 colon = test system: KM12 colon
# HS 578T breast = test system: HS 578T breast
# MALME-3M melanoma = test system: MALME-3M melanoma
# SK-MEL-2 melanoma = test system: SK-MEL-2 melanoma
Structure (SMILES),TGI (786-0 renal) [µM],TGI (HOP-92 NSCLC) [µM],TGI (NCI-H226 lung) [µM],TGI (U251 CNS) [µM],TGI (OVCAR-5 ovarian) [µM],TGI (IGROV1 ovarian) [µM],TGI (K-562 leukemia) [µM],TGI (M14 melanoma) [µM],TGI (KM12 colon) [µM],TGI (HS 578T breast) [µM],TGI (MALME-3M melanoma) [µM],TGI (SK-MEL-2 melanoma) [µM],GI50 (HOP-92 NSCLC) [µM],GI50 (NCI-H226 lung) [µM],GI50 (U251 CNS) [µM],GI50 (IGROV1 ovarian) [µM],GI50 (K-562 leukemia) [µM],GI50 (M14 melanoma) [µM],GI50 (KM12 colon) [µM],GI50 (HS 578T breast) [µM]
COC(=O)c1ccccc1C1CN=NC12Cc1cc(C)ccc1C2=O (stereo not drawn),> 100,> 100,> 100,> 100,> 100,> 100,> 100,> 100,> 100,> 100,> 100,> 100,,,,,,,,
Cc1ccc(S(=O)(=O)NNCNC(=O)c2ccccc2)cc1,> 100,> 100,> 100,> 100,> 100,> 100,> 100,> 100,> 100,> 100,> 100,> 100,,,,,,,,
COc1ccc(C(=O)/C=C/c2cc(O)c(O)c(F)c2F)c(OC)c1,41.9,> 100,56.6,32.1,95.7,> 100,> 100,> 100,33.5,> 100,31.3,33.6,,,,,,,,
CCCCCCCCCCCCCCCCCCN(C)CC(COP(=O)([O-])OCC[N+](C)(C)C)OC (stereo not drawn),14.7,35.6,42.4,10.1,11.1,6.63,54.6,29.6,7.71,> 85.8,43.3,53.7,,,,,,,,
Nn1c(Cc2ccc([N+](=O)[O-])cc2)n[nH]c1=O,> 100,> 100,> 100,> 100,> 100,> 100,> 100,> 100,> 100,> 100,> 100,> 100,,,,,,,,
OC(c1cc(C23CC4CC(CC(C4)C2)C3)nc2c(Cl)cc(Cl)cc12)C1CCCCN1 (stereo not drawn),3.21,2.67,3.77,3,3.17,3.45,3.07,3.13,3.07,3.89,3.71,3.46,,,,,,,,
CCC(C#N)NCc1cccc(CNC(C#N)CC)c1 (stereo not drawn),> 100,> 100,> 100,> 100,34.2,> 100,> 100,31.4,> 100,> 100,> 100,> 100,,,,,,,,
CCCCCCCCCCCCC(O)[C@H]1CC[C@H](C(O)CCCCCC(=O)CCCCC2CC(C(C)=O)C(=O)O2)O1 (stereo partly drawn),52.1,31.7,46.1,> 62.5,50,71.6,> 63.6,26.2,24.3,51.2,23.7,28.3,3.23,3.48,3.99,4.3,1.91,6.01,4.2,4.42
O=C(O)CN1C(=O)C(Cc2ccc(O)cc2)N=C(c2cccc(O)c2)c2ccccc21 (stereo not drawn),> 100,> 100,> 100,> 100,> 100,> 100,> 100,> 100,> 100,> 100,> 100,> 100,,,,,,,,
CC(=O)O[C@H]1[C@H](OC(=O)CC(C)(O)CC(=O)O)C[C@]2(C)C3=C(CCC2C1(C)C)[C@]1(C)CC[C@H]([C@H]2CC[C@H](C(C)(C)O)OC2O)[C@@]1(C)[C@@H](O)C3 (stereo partly drawn),37.3,31.1,53.8,35.5,31.7,30.8,76.5,33.4,38.6,41.9,57.3,37.1,,,,,,,,
O=C1C(c2c(O)[nH]c3ccc(Br)cc23)=Nc2ccccc21,5.75,34.9,34.3,26.2,26,13,> 100,32.4,50.5,54.6,44.4,28.3,,,,,,,,
O=[N+]([O-])c1ccc(N/N=C/c2ccc(OCCCCCCCCCCCO)cc2)c([N+](=O)[O-])c1,4,14.6,37.3,10.7,> 56.1,67.4,2.97,3.22,7.84,6.5,4.61,56.1,,,,,,,,
CCOC(=O)c1ccc(N=c2sc3ccccc3nc2Nc2ccc(C(=O)OCC)cc2)cc1,64.8,> 100,> 100,> 100,> 100,> 100,> 100,,> 100,> 100,> 100,> 100,,,,,,,,
CCCCn1c2c(n(CCCC)c1=S)-c1c(n(CCCC)c(=S)n1CCCC)SSc1c(n(CCCC)c(=S)n1CCCC)-c1c(n(CCCC)c(=S)n1CCCC)SSc1c(n(CCCC)c(=S)n1CCCC)-c1c(n(CCCC)c(=S)n1CCCC)SS2,> 50,3.53,> 38.4,> 50,25.4,8.64,> 50,> 50,> 50,> 50,6.19,29.3,,,,,,,,
C/C(=N\NC(=S)NCCCNC(=S)N/N=C(\C)c1ccccn1)c1ccccn1,6.07,> 66.2,> 29.6,> 47.1,> 90.3,37.4,> 100,4.08,> 76.1,> 100,17.5,> 50.9,,,,,,,,
"CC[C@H](C)[C@@H]1OC(=O)CCNC(=O)[C@@H](C)NC(=O)C(C)(C)C(=O)[C@H](C)NC(=O)[C@H](Cc2ccc(OC)cc2)N(C)C(=O)[C@H](C(C)C)N(C)C(=O)CNC(=O)[C@H](CC(C)C)N(C)C(=O)CNC1=O (cyclo(G[NMeL]G[NMeV][NMeY](Me)[X32][dA][βAla][Hmpa(2S,3S)]))",12.7,4.61,> 38.2,2.62,> 31.2,4.16,> 24.5,10.2,,20.8,10.3,6.48,,,,,,,,
